These results are taken from patent US6452005B1, “JAK-3 inhibitors for treating allergic disorders” (Parker Hughes Institute, priority 1999, dated 2002).

Experiment [1] has as its system JAK3-dependent STAT activation. The experiment can be described thus: EMSA, IL-2 triggered STAT activation in 32Dc11/IL2Rβ cells. Format: cell-based. How it is done: (§1) Electrophoretic Mobility Shift Assays (EMSAs). EMSAs were performed to examine the effects of dimethoxyquinazoline compounds on cytokine-induced STAT activation (Goodman et. al., 1998). […] Cells were collected after 15 minutes and resuspended in lysis buffer (100 mM Tris-HCl pH 8.0, 0.5% NP-40, 10% glycerol, […], 0.1 mM NaVO3, 50 mM NaF, 150 mM NaCl, 1 mM DTT, 3 μg/ml Aprotinin, 2 μg/ml Pepstatin A, 1 μg/ml Leupeptin and 0.2 mM PMSF). Lysates were precleared by centrifugation for 30 min. Cell extracts (approximately 10 μg) were incubated with 2 μg of poly(dI-dC) for 30 minutes, followed by a 30 minutes incubation with 1ng of poly. nucleotide kinase-^32P labeled double stranded DNA oligonucleotide representing the IRF-1 STAT DNA binding sequence (Santa Cruz Biotechnology, Santa Cruz, Calif.). Samples were resolved by non-denaturing PAGE and visualized by autoradiography.

Experiment [2] has as its system JAK1/JAK2-dependent STAT activation. The experiment can be described thus: EMSA, IL-3 triggered STAT activation in 32Dc11/IL2Rβ cells. Format: cell-based. The note with it: 10 μg/ml. As for the experimental part: as §1
In a further experiment the target is T1, BTK (Homo sapiens, UniProt Q06187).
T1 construct: made in house; host or cells: Sf21 insect cells, baculovirus
T1 sequence (Q06187 whole entry, species assumed): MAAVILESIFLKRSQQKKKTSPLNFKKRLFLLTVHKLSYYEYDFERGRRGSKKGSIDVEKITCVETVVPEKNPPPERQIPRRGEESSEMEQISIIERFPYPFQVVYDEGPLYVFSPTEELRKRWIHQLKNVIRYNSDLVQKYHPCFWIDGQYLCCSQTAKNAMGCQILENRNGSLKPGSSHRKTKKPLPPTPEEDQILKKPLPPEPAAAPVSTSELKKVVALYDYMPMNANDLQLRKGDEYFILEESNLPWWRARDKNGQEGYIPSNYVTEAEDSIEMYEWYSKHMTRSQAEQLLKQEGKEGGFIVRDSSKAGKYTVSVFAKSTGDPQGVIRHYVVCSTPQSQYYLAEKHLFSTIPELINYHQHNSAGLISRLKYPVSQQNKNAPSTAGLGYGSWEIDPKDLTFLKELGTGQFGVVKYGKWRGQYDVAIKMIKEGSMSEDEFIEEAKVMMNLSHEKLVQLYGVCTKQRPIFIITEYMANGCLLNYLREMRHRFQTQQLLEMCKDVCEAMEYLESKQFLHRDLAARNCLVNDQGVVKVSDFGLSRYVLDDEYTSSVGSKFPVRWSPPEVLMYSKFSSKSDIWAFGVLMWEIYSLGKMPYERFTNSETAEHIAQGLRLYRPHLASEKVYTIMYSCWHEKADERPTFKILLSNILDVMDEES
The experiment can be described thus: Immune complex kinase assay, BTK from Sf21 cells. As to conditions: concentrations as high as 350 μM. Format: biochemical. The text has this:
Immune Complex Kinase Assays.

The next experiment has as its target T2, IRK (Homo sapiens, UniProt P06213).
T2 construct: IRK was immunoprecipitated from the lysates with an anti-IRb antibody; endogenous in cells; host or cells: HepG2 human hepatoma cells, insulin-stimulated
The experiment can be described thus: Immune complex kinase assay, IRK from HepG2 cells. In kind it is biochemical. The note with it: concentrations as high as 350 μM. As for the experimental part: For insulin receptor kinase (IRK) assays, HepG2 human hepatoma cells grown to approximately 80% confluency were washed once with serum-free DMEM and starved for 3 hours at 37° in a CO2 incubator. Subsequently, cells were stimulated with insulin (Eli Lilly, cat# CP-410;10 units/ml/10×10^6 cells) for 10 minutes at room temperature. Following this IRK activation step, cells were washed once with serum free medium, lysed in NP-40 buffer and IRK was immunoprecipitated from the lysates with an anti-IRb antibody (Santa Cruz, Cat.# sc-711, polyclonal IgG). Prior to performing the immune complex kinase assays, the beads were equilibrated with the kinase buffer (30 mM Hepes pH 7.4, 30 mM NaCl, 8 mM MgCl2, 4 mM MnCl2).

The test system of another experiment is RBL-2H3 cells. The experiment can be described thus: Calcium mobilization assay (Fluo-3). Format: cell-based, rat. As for the experimental part:
IgE sensitized RBL-2H3 cells were loaded with 1 μM Fluo-3 for 1 hour as described in the Examples below. The cells were then challenged with DNP-BSA or ionomycin and change in fluorescence was recorded. To study the effect of WHI-P131 on intracellular calcium mobilization, IgE-sensitized and Fluo-3 loaded RBL-2H3 cells were incubated with 3 μM, 12 μM or 30 μM WHI-P131 for 5 minutes prior to challenge with DNP-BSA or ionomycin.
Calcium Measurement: Calcium mobilization assay was performed as described earlier (Zhu et. al., 1998, Clin. Cancer Res., 4:2967-2976). RBL-2H3 cells were loaded with Fluo-3 and stimulated with DNP-BSA in presence and absence of WJI-P131 as described above. Calcium response was measured by an calcium imaging device (Universal Imaging Co., West Chester, Pa.) mounted onto a inverted microscope. The exitation wavelength was 485 nm and the emission wavelength for detection was 535 nm. The fluorescent image of an individual cell was acquired by a CCD72 video camera (Dage-MTI Inc., Michigan City, Ill.) at the speed of 1 frame/s and digitized by computer.
(In general: Calcium assays in cells follow changes in intracellular calcium, usually with a dye or a luminescent sensor.)

A further experiment relates to BALB/c mice. The experiment can be described thus: IgE/antigen-induced active systemic anaphylaxis model. Format: in vivo. The note with it: BSA-sensitized mice, two doses of 45 mg/kg before challenge; 8 of 15. As for the experimental part: FIG. 14E is a graph showing results of a study of the effect of JAK3 inhibitor WHI-P131 on fatal anaphylaxis in mice. BALB/c mice were sensitized with 100 mg/kg bovine serum albumin in 200 μl of the adjuvant aluminum hydroxide gel (Reheis Inc., Berkeley, N.J.), which favors the production of IgE in response to the presented antigen. Ten days later, mice were treated with two doses of WHI-P131 (45 mg/kg) or vehicle 30 minutes apart and then challenged with an i.v. injection of the 10 mg/kg BSA. Cumulative proportions of mice surviving anaphylaxis-free are shown according to the time after the antigen challenge.
To induce passive systemic anaphylaxis, BALB/c mice were sensitized with […] DNP-IgE intravenously. At 24 hours DNP-BSA (2 mg) was administered intravenously with 0.5% Evans blue (200 μl). For assessment of vascular leak, animals were sacrificed 30 minutes after the antigen challenge and their foot pads were examined for blue coloration. Histamine levels in plasma were measured 5 minutes after the antigen challenge. […] For histopathologic evaluation of tissue mast cell degranulation, ears of mice were removed 1 hour after the DNP-BSA injection and fixed in 10 percent buffered formalin. […]

For experiment [3], the system named is mouse bone marrow mast cells. The note with it: data not shown.
In a further experiment the target is recombinant JAK2 (Homo sapiens, UniProt O60674). The experiment can be described thus: Immune complex kinase assay, recombinant JAK2. As to conditions: FIG. 6C & D.
Sequence of recombinant JAK2 (O60674 whole entry): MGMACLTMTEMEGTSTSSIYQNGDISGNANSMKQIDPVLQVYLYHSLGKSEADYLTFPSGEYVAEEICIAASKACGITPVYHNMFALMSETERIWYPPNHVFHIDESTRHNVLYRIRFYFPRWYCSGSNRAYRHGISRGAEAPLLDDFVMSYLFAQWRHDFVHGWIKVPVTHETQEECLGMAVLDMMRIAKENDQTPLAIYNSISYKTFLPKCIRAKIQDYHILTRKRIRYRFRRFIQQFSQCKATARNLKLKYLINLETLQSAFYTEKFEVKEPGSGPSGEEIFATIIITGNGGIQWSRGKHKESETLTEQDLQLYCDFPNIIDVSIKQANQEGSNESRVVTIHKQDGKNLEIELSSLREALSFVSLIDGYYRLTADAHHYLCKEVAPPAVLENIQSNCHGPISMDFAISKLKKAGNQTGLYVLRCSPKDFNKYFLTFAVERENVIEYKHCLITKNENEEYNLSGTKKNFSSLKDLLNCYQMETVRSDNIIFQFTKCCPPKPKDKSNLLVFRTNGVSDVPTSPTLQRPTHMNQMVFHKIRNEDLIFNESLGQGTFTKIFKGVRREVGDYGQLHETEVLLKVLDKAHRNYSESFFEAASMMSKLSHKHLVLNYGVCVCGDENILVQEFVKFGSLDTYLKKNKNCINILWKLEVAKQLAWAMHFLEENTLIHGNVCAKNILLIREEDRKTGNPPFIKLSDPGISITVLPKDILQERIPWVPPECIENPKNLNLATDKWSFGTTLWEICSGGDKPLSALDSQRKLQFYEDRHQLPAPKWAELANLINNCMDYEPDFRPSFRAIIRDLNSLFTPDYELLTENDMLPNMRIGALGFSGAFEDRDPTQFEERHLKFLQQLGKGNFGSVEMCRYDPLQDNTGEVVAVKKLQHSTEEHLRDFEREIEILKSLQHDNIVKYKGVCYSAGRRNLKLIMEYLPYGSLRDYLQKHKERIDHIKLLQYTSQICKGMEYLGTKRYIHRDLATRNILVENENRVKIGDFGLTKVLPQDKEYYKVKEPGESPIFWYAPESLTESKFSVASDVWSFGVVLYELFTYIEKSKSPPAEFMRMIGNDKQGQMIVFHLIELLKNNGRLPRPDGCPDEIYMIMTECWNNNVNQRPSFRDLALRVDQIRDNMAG
The subject of the next experiment is human mast cells. The note with it: IgE-sensitized, anti-IgE challenge, 30 minutes exposure.

SMILES strings stand for the structures.

T2 sequence (P06213 763-1382 limits assumed): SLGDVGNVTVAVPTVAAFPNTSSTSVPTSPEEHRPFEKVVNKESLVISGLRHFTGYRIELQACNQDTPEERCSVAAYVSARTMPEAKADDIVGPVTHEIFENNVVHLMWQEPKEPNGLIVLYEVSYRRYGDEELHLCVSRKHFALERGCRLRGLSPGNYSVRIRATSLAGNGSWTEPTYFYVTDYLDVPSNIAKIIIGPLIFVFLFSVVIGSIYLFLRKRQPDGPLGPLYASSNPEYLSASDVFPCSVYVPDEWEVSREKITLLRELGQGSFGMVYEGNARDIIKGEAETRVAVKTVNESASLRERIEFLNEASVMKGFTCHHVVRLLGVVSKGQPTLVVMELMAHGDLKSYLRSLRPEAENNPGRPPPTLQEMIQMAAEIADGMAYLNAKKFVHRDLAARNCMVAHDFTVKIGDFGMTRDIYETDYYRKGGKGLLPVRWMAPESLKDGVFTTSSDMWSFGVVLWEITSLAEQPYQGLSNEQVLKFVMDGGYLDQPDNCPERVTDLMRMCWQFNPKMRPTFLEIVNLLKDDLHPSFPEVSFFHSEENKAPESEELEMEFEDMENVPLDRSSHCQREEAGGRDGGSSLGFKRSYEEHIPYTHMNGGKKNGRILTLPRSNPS
T2 sequence (P06213 28-758 partner limits assumed): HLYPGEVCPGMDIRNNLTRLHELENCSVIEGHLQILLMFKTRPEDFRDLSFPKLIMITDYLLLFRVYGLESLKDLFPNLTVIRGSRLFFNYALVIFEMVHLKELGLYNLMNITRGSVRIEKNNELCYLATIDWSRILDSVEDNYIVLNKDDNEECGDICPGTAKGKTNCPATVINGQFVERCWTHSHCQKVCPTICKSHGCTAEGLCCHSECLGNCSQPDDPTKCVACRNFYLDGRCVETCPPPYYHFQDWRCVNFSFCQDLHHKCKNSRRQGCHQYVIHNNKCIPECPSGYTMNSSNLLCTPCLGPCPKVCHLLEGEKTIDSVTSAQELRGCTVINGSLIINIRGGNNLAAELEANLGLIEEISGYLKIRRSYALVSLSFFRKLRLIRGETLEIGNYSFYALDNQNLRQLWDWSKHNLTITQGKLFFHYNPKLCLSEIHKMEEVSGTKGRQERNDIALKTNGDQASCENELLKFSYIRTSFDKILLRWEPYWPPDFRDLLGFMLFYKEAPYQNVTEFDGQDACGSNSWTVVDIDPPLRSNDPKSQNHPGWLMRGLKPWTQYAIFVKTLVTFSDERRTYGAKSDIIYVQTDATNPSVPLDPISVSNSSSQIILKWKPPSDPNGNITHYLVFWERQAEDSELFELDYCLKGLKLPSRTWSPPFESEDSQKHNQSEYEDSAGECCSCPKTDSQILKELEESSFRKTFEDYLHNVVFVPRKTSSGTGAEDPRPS
Method for human mast cells: Human Mast Cells: Cells from human fetal livers (16 to 21 weeks of gestational age) were cultured for 5 weeks in the presence of 50 ng/ml rhSCF, 2 ng/ml rhlL-4 (Xia et. al., 1997, J. Immunol., 159:2911-2921). Culture medium was replaced with fresh medium once a week for the first 2 weeks and twice a week thereafter. At the end of the 5 weeks, the fetal liver derived cell cultures contained>70% mast cells, based on tryptase staining (Irani et. al., 1989, J. Histochem. Cytochem, 37:1509-1515).
Fetal liver derived human mast cells were resuspended in tyrode buffer containing calcium and magnesium and challenged with anti-FcεRI antibody 22E7 for 15 minutes. […]
Leukotriene (LT) C4 levels were estimated in cell free supernatants by immunoassay (Malaviya et. al., 1993, J. Biol. Chem., 268:4939-4944). […] Tryptase levels were quantitated in cell free supernatants and pellets of fetal liver derived human mast cells as has been described in detail (Xia et. al., 1997, J. Immunol., 159:2911-2921).
Fetal liver derived human mast cells were cultured in presence of SCF and IL-4 for 5 weeks. […] The FcεRI receptors of fetal liver derived human mast cells were crosslinked with anti-IgE and the resulting mast cell degranulation (i.e., β-tryptase) (Xia et. al., 1997, J. Immunol., 159:2911-2921) and LTC4 release (Malaviya et. al., 1993, J. Biol. Chem., 268:4939-4944) were quantitated.
Method for recombinant JAK2: In FIGS. 6A-6D, JAK3, JAK1, and JAK2 were immunoprecipitated from Sf21 insect ovary cells transfected with the appropriate baculovirus expression vectors and treated with WHI-P131, then subjected to in vitro kinase assays as described in the Examples below. The enzymatic activity of JAKs was determined by measuring autophosphorylation in a 10 minute kinase assay, as described in the Examples below. The kinase activity (KA) levels were expressed as percentage of baseline activity (%CON).
Immune Complex Kinase Assays. Sf21 (IPLB-SF21-AE) cells (Vassilev et. al., 1999, J. Biol. Chem,. 274:1646-1656) derived from the ovarian tissue of the fall armyworm Spodotera frugiperda, were obtained from Invitrogen and maintained at 26-28° C. in Grace's insect cell medium supplemented with 10% FBS and 1.0% antibiotic/antimycotic (GIBCO-BRL). Stock cells were maintained in suspension at 0.2-1.6×10^6/ml in 600 ml total culture volume in 1 L Bellco spinner flasks at 60-90 rpm. Cell viability was maintained at 95-100% as determined by trypan blue dye exclusion.
Sf21 cells were infected with a baculovirus expression vector for BTK, SYK, JAK1, JAK2, or JAK3, as previously reported (Mahajan et. al., 1999, J. Biol. Chem., 274:1646-1656). […]

For `COc1cc2ncnc(Nc3ccc(O)cc3)c2cc1OC` [WHI-P131, 4-(4′-Hydroxylphenyl)-amino-6,7-dimethoxyquinazoline], the “JAK3-dependent STAT activation after stimulation with IL-2” value in experiment [1] (10 μg/ml, 32Dc11/IL2Rβ cells) was “inhibited”. Besides, the “IL-2 triggered JAK-3-dependent STAT activation” value in experiment [1] (100 μg/ml in FIG. 6E legend) is “inhibited”. In addition, in [2], the “JAK1/JAK2-dependent STAT activation after stimulation with IL-3” value was “did not affect”. Besides, the “effect on enzymatic activity of BTK” value on BTK is given as “did not affect”. At IRK, the “effect on enzymatic activity of IRK” value is on record as “did not affect”. Moreover, the “ionomycin induced nonspecific calcium responses” value in the experiment on RBL-2H3 cells was “not affected”. For the same molecule, in the experiment with RBL-2H3 cells (30 μM, IgE-sensitized, Fluo-3 loaded), the “calcium response to DNP-BSA” value was “abrogated”. The “mice surviving without any signs of anaphylaxis” value with BALB/c mice was 53%. Also, in experiment [3], the “IgE receptor/FcεRI-mediated release of LTC4” value is on record as “markedly reduced” and the “IgE receptor/FcεRI-mediated release of histamine” value is “markedly reduced”. Further, the “inhibitory activity against recombinant JAK2” value at recombinant JAK2 is recorded as “did not exhibit any detectable inhibitory activity”. Moreover, in the experiment with human mast cells, the “release of LTC4” value was “inhibited” and the “release of β-tryptase” value is “inhibited”.
